The source of these data is article PMC4770715, “LIM kinase inhibitors disrupt mitotic microtubule organization and impair tumor cell proliferation” (Oncotarget, 2015).

Targets include FYN (Homo sapiens, UniProt P06241); PKN1 (Homo sapiens, UniProt Q16512); CDK8 (Homo sapiens, UniProt P49336); ERBB3 (Homo sapiens, UniProt P21860); PIK3CA(I800L) (Homo sapiens, UniProt P42336, I800L); ACVR1 (Homo sapiens, UniProt Q04771); MARK4 (Homo sapiens, UniProt Q96L34); EPHA3 (Homo sapiens, UniProt P29320); IGF1R (Homo sapiens, UniProt P08069); CSNK1A1L (Homo sapiens, UniProt Q8N752); PIK3CA(E545A) (Homo sapiens, UniProt P42336, E545A); BRSK1 (Homo sapiens, UniProt Q8TDC3); CAMK2A (Homo sapiens, UniProt Q9UQM7); FER (Homo sapiens, UniProt P16591).

Common to all, as to assay: biochemical
Common to all, as to set-up: KINOMEscan active-site competition binding, percent of control (100 = no competition)
Holding throughout (conditions): competition binding, percent control

A further assay addresses T1, PAK7 (Homo sapiens, UniProt Q9P286).
T1 construct: gene PAK5

A further assay addresses T2, TIE2 (Homo sapiens, UniProt Q02763).
T2 construct: gene TEK

The target of assay [1] is T3, RPS6KA5(Kin.Dom.2-C-terminal) (Homo sapiens, UniProt O75582).
T3 construct: Kin.Dom.2-C-terminal

Assay [2] deals with T4, ABL1(T315I)-nonphosphorylated (Homo sapiens, UniProt P00519, T315I).
T4 construct: nonphosphorylated

Assay [3] deals with T5, RSK1(Kin.Dom.2-C-terminal) (Homo sapiens, UniProt Q15418).
T5 construct: gene RPS6KA1; Kin.Dom.2-C-terminal

In another assay the target is T6, ARK5 (Homo sapiens, UniProt O60285).
T6 construct: gene NUAK1

For a further assay, the target named is T7, p38-alpha (Homo sapiens, UniProt Q16539).
T7 construct: gene MAPK14
T7 sequence (Q16539 whole entry): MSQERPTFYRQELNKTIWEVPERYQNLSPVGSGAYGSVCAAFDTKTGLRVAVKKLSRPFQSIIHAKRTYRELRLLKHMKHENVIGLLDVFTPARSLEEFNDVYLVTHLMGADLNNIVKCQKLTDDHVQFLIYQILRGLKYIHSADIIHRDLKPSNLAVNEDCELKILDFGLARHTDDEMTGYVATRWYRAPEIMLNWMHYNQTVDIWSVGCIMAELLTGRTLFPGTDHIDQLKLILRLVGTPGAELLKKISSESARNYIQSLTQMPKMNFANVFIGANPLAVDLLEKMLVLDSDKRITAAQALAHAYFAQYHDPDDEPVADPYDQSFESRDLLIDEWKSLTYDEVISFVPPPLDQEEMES

A further assay concerns the target T8, PKAC-alpha (Homo sapiens, UniProt P17612).
T8 construct: gene PRKACA

Chain of PKN1 (Q16512 whole entry): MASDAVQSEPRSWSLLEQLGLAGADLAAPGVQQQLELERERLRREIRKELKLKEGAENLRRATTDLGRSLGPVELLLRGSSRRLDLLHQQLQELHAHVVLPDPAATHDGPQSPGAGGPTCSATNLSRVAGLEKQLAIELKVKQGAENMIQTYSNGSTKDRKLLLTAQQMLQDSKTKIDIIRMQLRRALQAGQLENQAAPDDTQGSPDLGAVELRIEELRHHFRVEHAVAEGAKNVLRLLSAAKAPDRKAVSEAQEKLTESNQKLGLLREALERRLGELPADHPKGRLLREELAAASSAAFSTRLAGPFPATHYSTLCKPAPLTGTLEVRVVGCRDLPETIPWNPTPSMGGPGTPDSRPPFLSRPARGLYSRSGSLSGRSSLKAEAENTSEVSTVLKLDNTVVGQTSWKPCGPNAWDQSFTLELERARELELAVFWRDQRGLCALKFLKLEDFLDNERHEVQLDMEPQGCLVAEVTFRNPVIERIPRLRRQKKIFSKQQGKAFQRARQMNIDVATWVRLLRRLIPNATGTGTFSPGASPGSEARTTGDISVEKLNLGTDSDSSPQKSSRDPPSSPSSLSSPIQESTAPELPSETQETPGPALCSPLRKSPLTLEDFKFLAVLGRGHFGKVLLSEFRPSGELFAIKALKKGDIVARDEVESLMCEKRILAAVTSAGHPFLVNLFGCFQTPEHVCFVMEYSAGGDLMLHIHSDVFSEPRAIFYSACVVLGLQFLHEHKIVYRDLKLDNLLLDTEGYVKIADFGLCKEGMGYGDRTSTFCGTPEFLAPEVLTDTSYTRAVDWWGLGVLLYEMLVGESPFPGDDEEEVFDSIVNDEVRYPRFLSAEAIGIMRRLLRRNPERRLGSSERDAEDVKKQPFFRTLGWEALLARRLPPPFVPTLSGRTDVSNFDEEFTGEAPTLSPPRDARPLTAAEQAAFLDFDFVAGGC
Chain of ERBB3 (P21860 whole entry): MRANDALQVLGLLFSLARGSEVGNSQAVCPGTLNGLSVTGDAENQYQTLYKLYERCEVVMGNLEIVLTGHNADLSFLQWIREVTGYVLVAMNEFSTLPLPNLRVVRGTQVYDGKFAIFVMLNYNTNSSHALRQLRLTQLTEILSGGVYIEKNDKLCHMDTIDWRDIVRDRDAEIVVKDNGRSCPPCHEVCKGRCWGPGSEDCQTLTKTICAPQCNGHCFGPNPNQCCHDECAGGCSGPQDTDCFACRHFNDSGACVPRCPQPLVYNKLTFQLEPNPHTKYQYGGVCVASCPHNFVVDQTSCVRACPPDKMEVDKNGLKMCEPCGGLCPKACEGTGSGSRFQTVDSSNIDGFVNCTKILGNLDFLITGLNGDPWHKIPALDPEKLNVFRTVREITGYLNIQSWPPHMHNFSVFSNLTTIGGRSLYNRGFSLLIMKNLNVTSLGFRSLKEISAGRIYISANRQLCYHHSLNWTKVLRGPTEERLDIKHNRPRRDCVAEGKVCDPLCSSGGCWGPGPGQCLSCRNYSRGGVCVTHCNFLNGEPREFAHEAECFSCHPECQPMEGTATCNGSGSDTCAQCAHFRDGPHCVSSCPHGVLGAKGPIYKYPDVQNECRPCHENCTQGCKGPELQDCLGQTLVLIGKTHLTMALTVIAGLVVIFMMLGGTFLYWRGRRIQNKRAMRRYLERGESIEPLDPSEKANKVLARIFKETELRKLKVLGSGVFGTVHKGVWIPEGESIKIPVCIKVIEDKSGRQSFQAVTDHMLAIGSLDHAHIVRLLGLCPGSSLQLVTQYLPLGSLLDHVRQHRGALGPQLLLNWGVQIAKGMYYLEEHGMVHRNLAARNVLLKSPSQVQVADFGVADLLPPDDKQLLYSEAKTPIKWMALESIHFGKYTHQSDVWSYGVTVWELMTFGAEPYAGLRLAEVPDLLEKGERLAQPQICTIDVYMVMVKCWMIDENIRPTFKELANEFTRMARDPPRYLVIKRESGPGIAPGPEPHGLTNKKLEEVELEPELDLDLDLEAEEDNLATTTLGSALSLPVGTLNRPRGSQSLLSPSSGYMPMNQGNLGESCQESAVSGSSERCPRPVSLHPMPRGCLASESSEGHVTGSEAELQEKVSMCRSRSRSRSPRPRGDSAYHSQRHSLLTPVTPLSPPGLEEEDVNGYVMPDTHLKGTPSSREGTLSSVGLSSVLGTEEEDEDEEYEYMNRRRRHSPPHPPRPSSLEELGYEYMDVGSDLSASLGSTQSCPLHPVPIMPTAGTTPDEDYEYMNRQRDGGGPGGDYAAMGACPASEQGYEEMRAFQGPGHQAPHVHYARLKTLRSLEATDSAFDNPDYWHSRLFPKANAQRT
Chain of PIK3CA(I800L) (P42336 whole entry I800L): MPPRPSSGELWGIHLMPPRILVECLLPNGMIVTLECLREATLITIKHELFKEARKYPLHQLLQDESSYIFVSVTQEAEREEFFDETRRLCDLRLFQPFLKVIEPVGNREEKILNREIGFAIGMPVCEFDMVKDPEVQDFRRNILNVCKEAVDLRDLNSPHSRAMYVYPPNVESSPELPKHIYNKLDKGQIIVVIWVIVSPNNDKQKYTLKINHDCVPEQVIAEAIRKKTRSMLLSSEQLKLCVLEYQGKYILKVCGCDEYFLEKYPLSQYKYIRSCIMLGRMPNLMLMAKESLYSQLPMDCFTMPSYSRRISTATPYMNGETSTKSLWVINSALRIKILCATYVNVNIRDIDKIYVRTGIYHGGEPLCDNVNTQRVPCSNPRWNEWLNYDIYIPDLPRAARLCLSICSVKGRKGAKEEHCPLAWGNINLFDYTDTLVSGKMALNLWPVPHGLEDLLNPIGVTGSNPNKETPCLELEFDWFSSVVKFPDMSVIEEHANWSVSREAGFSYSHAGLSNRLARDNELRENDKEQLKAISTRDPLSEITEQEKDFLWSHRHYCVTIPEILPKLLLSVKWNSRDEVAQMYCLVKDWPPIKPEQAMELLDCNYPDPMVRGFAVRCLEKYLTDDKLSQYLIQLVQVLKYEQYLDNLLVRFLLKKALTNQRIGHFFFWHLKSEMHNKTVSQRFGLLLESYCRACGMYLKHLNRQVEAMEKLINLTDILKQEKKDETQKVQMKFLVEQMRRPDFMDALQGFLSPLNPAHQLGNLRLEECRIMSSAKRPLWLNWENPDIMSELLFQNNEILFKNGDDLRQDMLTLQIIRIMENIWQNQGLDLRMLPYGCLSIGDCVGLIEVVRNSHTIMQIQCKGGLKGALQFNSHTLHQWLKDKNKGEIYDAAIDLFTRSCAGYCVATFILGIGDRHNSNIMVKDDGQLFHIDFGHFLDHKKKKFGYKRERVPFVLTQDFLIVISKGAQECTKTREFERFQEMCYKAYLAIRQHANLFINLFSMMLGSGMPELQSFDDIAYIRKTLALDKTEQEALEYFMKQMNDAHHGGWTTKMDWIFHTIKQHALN
Chain of CDK8 (P49336 whole entry): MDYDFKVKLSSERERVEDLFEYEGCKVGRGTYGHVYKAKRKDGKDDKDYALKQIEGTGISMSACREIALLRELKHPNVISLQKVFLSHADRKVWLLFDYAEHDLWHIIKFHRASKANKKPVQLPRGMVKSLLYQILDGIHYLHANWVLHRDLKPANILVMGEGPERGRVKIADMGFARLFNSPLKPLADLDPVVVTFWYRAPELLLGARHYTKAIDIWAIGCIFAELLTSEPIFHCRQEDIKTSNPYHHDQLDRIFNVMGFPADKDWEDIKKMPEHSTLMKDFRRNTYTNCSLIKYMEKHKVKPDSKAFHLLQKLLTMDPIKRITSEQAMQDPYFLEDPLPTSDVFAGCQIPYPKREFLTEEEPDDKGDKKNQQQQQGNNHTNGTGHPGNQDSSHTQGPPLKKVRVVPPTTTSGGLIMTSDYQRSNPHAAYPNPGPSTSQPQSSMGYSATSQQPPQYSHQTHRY
Chain of CAMK2A (Q9UQM7 whole entry): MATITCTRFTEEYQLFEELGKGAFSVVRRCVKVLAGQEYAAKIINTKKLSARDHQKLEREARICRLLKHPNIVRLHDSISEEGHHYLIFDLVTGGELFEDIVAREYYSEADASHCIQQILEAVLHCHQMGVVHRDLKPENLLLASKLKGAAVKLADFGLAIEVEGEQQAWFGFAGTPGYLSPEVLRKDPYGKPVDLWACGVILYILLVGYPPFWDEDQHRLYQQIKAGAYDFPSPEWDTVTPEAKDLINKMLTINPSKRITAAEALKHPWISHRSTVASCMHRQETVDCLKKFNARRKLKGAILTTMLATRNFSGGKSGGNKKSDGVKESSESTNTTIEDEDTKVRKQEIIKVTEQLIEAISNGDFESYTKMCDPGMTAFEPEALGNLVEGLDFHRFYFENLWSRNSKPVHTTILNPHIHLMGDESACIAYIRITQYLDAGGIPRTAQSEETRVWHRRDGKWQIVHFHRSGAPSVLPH
Chain of CSNK1A1L (Q8N752 whole entry): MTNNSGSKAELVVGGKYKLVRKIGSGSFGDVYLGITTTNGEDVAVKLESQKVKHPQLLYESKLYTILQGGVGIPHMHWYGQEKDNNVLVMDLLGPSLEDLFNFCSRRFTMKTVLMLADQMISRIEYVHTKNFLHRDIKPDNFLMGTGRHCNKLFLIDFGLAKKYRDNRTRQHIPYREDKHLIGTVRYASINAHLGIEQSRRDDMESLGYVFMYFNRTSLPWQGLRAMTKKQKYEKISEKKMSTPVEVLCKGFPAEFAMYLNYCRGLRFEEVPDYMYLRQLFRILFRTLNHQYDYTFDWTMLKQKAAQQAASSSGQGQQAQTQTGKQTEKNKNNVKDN
Chain of PIK3CA(E545A) (P42336 whole entry E545A): as the sequence (P42336 whole entry I800L) above, with E545A, L800I counted along it

As for `COc1ccc(-c2cnccc2-c2cnc(NC(=O)C(C)C)s2)c(C(F)(F)F)c1` [CRT0105446, N-{5-[3-(4-Methoxy-2-trifluoromethyl-phenyl)-pyridin-4-yl]-hiazol-2-yl}-isobutyramide], the remaining binding at 10 µM at PAK7 turned out to be 95%; on FYN, 99%; on PKN1, 62%; at CDK8, 39%; on ERBB3, 100%; at PIK3CA(I800L), 100%. In addition, the remaining binding at 10 µM was determined as 87% at TIE2; 100% on ACVR1; 86% in [1]; 57% on MARK4; 87% at EPHA3; 100% in assay [2]. For the same compound, the remaining binding at 10 µM on IGF1R was determined as 100%; at CSNK1A1L, 96%; in [3], 43%; on PIK3CA(E545A), 100%; on BRSK1 it was 27%; on CAMK2A it was 82%. In addition, the remaining binding at 10 µM at FER was found to be 100%; on ARK5, 59%; on p38-alpha, 93%; on PKAC-alpha, 100%.

In the case of `Cc1ccc(-c2cnccc2-c2cnc(Nc3ccc(O)cc3)s2)c(Cl)c1` [CRT0105950, 4-{5-[3-(2-Chloro-4-methyl-phenyl)-pyridin-4-yl]-thiazol-2-ylamino}-phenol], the remaining binding at 10 µM was 93% on PAK7; 49% at FYN; 20% at PKN1; 11% on CDK8; 100% on ERBB3; 100% at PIK3CA(I800L). For the same compound, the remaining binding at 10 µM on TIE2 came to 44%; at ACVR1 it was 52%; in assay [1], 89%; on MARK4, 4%; on EPHA3, 71%; in [2], 82%. Moreover, the remaining binding at 10 µM on IGF1R turned out to be 3.6%; on CSNK1A1L, 74%; in [3] it was 27%; at PIK3CA(E545A), 100%; on BRSK1, 30%; on CAMK2A, 33%. Moreover, the remaining binding at 10 µM on FER was found to be 57%; on ARK5 it was 49%; on p38-alpha, 87%; on PKAC-alpha it was 41%.
